Measured values as given in patent US12600731B2, “Isoxazolo[5,4-H]quinazoline compounds as protein kinase inhibitors” (CHENGDU CYNOGEN BIO-PHARMACEUTICAL TECHNOLOGY CO., LTD., priority 2019, dated 2026).
Where a name gives a salt, the structure may show the parent alone.

Experiments:
Format in all cases: biochemical
CDK6/Cyclin D3 = CDK6/Cyclin D3 (Homo sapiens, UniProt Q00534); assay: Kinase activity assay, CDK6/Cyclin D3 (tested in a similar manner); conditions: tested in a similar manner to CDK4/cyclin D3
Chain of CDK6/Cyclin D3 (Q00534 whole entry, species assumed): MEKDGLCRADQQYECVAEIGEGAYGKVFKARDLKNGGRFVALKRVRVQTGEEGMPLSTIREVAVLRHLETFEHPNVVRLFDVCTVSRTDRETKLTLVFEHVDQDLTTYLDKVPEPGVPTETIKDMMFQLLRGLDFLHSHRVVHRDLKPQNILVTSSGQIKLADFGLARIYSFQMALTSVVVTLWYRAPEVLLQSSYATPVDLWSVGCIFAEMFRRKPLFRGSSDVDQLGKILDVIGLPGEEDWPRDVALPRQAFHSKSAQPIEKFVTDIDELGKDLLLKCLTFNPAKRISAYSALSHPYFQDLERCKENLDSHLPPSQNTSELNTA
Chain of CDK6/Cyclin D3 (P30281 whole entry partner, species assumed): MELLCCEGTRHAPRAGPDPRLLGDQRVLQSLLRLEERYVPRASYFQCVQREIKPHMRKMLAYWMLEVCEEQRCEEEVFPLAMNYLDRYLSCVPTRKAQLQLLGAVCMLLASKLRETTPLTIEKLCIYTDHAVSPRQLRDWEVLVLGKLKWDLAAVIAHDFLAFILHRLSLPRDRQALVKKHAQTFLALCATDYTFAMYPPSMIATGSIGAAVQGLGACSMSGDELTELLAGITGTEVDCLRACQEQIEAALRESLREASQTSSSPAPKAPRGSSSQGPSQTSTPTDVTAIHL
Method: (§1) The inhibitory effect of compounds against the kinase CDK4/cyclin D3 was detected by Caliper Mobility Shift Assay method. The final concentration of the compounds to be tested was set at 10 concentrations starting from 1 μM by 3-fold serial dilution. 5 μL of compounds at 5-fold final concentration and 10 μL of CDK4/cyclin D3 kinase solution at a final concentration of 10 nM was added to a 384-well reaction plate, respectively. The plate was pre-incubated for 10 min at room temperature (with negative control wells containing 10 μL of kinase buffer and 5 μL of 5% DMSO; positive control wells containing 10 μL of kinase solution and 5 μL of 5% DMSO). The reaction was initiated by adding 10 μL of ATP at a final concentration of 250 μM and the corresponding substrate peptide mixture at room temperature for 150 minutes. 30 μL of stop detection solution containing EDTA was added to stop the kinase reaction. Caliper EZ Reader was used to read the conversion rate. Inhibition rate %=(average conversion rate of positive control %−conversion rate of sample %)/(average conversion rate of positive control %−average conversion rate of negative control %). wherein: negative control wells represent the conversion rate readings of wells without enzymatic activity; positive control wells represent conversion readings for wells with no compound inhibition. The log(inhibitor) vs. response—Variable slope of the analysis software GraphPad Prism 5 was used with log concentration value as the X-axis and the percent inhibition rate as the Y-axis to fit the dose-response curve, the IC50 value of each compound on the enzyme activity was thus obtained. Calculation formula: Y=Bottom+(Top−Bottom)/(1+10^((Log IC50−X)*HillSlope)).
(§2) The IC50 values for CDK6/Cyclin D3 and CDK2/Cyclin A2 of compounds of the present disclosure were tested in a similar manner.

CDK2/Cyclin A2 = CDK2/Cyclin A2 (Homo sapiens, UniProt P24941); assay: Kinase activity assay, CDK2/Cyclin A2 (tested in a similar manner); conditions: tested in a similar manner to CDK4/cyclin D3
Method: as §1, §2

CDK4/cyclin D3 = CDK4/cyclin D3 (Homo sapiens, UniProt P11802); assay: Kinase activity assay, Caliper Mobility Shift Assay, CDK4/cyclin D3; conditions: 10 nM kinase, ATP 250 μM, 150 minutes at room temperature
Chain of CDK4/cyclin D3 (P11802 whole entry, species assumed): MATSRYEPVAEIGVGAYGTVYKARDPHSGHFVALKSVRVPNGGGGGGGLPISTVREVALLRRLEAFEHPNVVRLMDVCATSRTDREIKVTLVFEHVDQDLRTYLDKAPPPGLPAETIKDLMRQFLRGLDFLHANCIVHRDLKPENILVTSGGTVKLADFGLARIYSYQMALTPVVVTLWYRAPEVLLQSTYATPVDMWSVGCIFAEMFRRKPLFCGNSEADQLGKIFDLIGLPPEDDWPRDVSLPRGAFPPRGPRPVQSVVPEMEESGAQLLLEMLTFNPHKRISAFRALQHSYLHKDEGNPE
Chain of CDK4/cyclin D3 (P30281 whole entry partner, species assumed): as the sequence (P30281 whole entry partner, species assumed) above
Method: as §1

Structure (SMILES) | IC50 (CDK6/Cyclin D3) [nM] | IC50 (CDK2/Cyclin A2) [nM] | IC50 (CDK4/cyclin D3) [nM]
CCN1CCN(c2ccc(Nc3ncc4ccc5onc(C(C)C)c5c4n3)cc2F)CC1 [Compound I-35, N-(4-(4-ethylpiperazin-1-yl)-3-fluorophenyl)-9-isopropylisoxazolo[5,4-H]quinazolin-2-amine] | 8 | 10 | 3
CC(C)c1noc2ccc3cnc(Nc4ccc(N(CCN5CCOCC5)S(C)(=O)=O)cc4)nc3c12 [Compound I-41, N-(4-((9-isopropylisoxazolo[5,4-H]quinazolin-2-yl)amino)phenyl)-N-(2-morpholinoethyl) methanesulfonamide] | 7 | 12 | 2
CC(C)c1noc2ccc3cnc(Nc4ccc(N5CCOCC5)cc4)nc3c12 [Compound I-29, 9-isopropyl-N-(4-morpholinophenyl) isoxazolo[5,4-H]quinazolin-2-amine] | 36 | 10 | 14
CC(C)Cc1noc2ccc3cnc(Nc4ccc(N5CCOCC5)cn4)nc3c12 [Compound I-21, 9-isobutyl-N-(5-morpholinopyridin-2-yl)isoxazolo[5,4-H]quinazolin-2-amine] | 245 |  | 47
CN1CCN(c2ccc(Nc3ncc4ccc5onc(C6CCCC6)c5c4n3)nc2)CC1 [Compound I-23, 9-cyclopentyl-N-(5-(4-methylpiperazin-1-yl)pyridin-2-yl)isoxazolo[5,4-H]quinazolin-2-amine] | 15 |  | 5
CC(C)c1noc2ccc3cnc(Nc4ccc(C5CCNCC5)cn4)nc3c12 [Compound I-14, 9-isopropyl-N-(5-(piperidin-4-yl)pyridin-2-yl)isoxazolo[5,4-H] quinazolin-2-amine] | 10 |  | 4
CCN1CCN(c2ccc(Nc3ncc4ccc5onc(CC(C)C)c5c4n3)nc2)CC1 [Compound I-20, N-(5-(4-ethylpiperazin-1-yl)pyridin-2-yl)-9-isobutylisoxazolo[5,4-H] quinazolin-2-amine] | 39 |  | 7
CC(C)c1noc2ccc3cnc(Nc4ccc(C(=O)N5CCN(C)CC5)cc4)nc3c12 [Compound I-43, (4-((9-isopropylisoxazolo[5,4-H]quinazolin-2-yl)amino)phenyl) (4-methylpiperazin-1-yl)methanone] | 5 | 4 | 1
c1cc(Nc2ncc3ccc4onc(C5CCCC5)c4c3n2)ncc1N1CCNCC1 [Compound I-22, 9-cyclopentyl-N-(5-(piperazin-1-yl)pyridin-2-yl)isoxazolo[5,4-H] quinazolin-2-amine] | 21 |  | 7
CCN1CCN(c2cnc(Nc3ncc4ccc5onc(C(C)C)c5c4n3)cc2C)CC1 [Compound I-6, N-(5-(4-ethylpiperazin-1-yl)-4-methylpyridin-2-yl)-9-isopropylisoxazolo[5,4-H] quinazolin-2-amine] | 377 |  | 82
CC(C)c1noc2ccc3cnc(Nc4ccc(N5CCN(C(C)C)CC5)cn4)nc3c12 [Compound I-9, 9-isopropyl-N-(5-(4-isopropylpiperazin-1-yl)pyridin-2-yl)isoxazolo [5,4-H]quinazolin-2-amine] | 14 |  | 4
CC(C)c1noc2c1-c1nc(Nc3ccc(N4CCOCC4)cn3)ncc1CC2 [Compound I-26, 9-isopropyl-N-(5-morpholinopyridin-2-yl)-5,6-dihydroisoxazolo[5,4-H] quinazolin-2-amine] | 276 |  | 63
CC(C)c1noc2c1-c1nc(Nc3ccc(N4CCNCC4)cn3)ncc1CC2 [Compound I-24, 9-isopropyl-N-(5-(piperazin-1-yl)pyridin-2-yl)-5,6-dihydroisoxazolo[5,4-h]quinazolin-2-amine hydrochloride] | 82 |  | 13
CC(C)c1noc2ccc3cnc(Nc4ccc(N5CCNCC5)cn4)nc3c12 [Compound I-1, 9-isopropyl-N-(5-(piperazin-1-yl)pyridin-2-yl)isoxazolo[5,4-H]quinazolin-2-amine hydrochloride] | 7 |  | 2
Cc1cc(Nc2ncc3ccc4onc(C(C)C)c4c3n2)ncc1N1CCNCC1 [Compound I-2, 9-isopropyl-N-(4-methyl-5-(piperazin-1-yl)pyridin-2-yl)isoxazolo[5,4-H] quinazolin-2-amine] | 23 |  | 6
CCN1CCN(c2ccc(Nc3ncc4ccc5onc(C(C)C)c5c4n3)nc2C)CC1 [Compound I-7, N-(5-(4-ethylpiperazin-1-yl)-6-methylpyridin-2-yl)-9-isopropylisoxazolo [5,4-H]quinazolin-2-amine] | 176 |  | 36
CC(C)c1noc2ccc3cnc(Nc4ccc(N5CCOCC5)cn4)nc3c12 [Compound I-8, 9-isopropyl-N-(5-morpholinopyridin-2-yl)isoxazolo[5,4-H] quinazolin-2-amine] | 15 |  | 5
CC(C)c1noc2ccc3cnc(Nc4ccc(N5CCNCC5)nn4)nc3c12 [Compound I-15, 9-isopropyl-N-(6-(piperazin-1-yl)pyridazin-3-yl)isoxazolo[5,4-H]quinazolin-2-amine] | 19 |  | 7
CC(C)c1noc2ccc3cnc(Nc4ccc(N5CCS(=O)(=O)CC5)cn4)nc3c12 [Compound I-17, 4-(6-((9-isopropylisoxazolo[5,4-H]quinazolin-2-yl)amino)pyridin-3-yl)thiomorpholine 1,1-dioxide] | 21 |  | 5
CC(C)Cc1noc2ccc3cnc(Nc4ccc(N5CCN(C)CC5)cn4)nc3c12 [Compound I-19, 9-isobutyl-N-(5-(4-methylpiperazin-1-yl)pyridin-2-yl)isoxazolo[5,4-H] quinazolin-2-amine] | 37 |  | 7
CC(C)c1noc2ccc3cnc(Nc4ccc(N5CCC(N(C)C)CC5)cn4)nc3c12 [Compound I-13, N-(5-(4-(dimethylamino)piperidin-1-yl)pyridin-2-yl)-9-isopropylisoxazolo [5,4-H]quinazolin-2-amine] | 12 |  | 4
Cc1nc(Nc2ncc3ccc4onc(C(C)C)c4c3n2)ccc1N1CCNCC1 [Compound I-3, 9-isopropyl-N-(6-methyl-5-(piperazin-1-yl)pyridin-2-yl)isoxazolo[5,4-H] quinazolin-2-amine] | 36 |  | 8
CCN1CCN(c2ccc(Nc3ncc4c(n3)-c3c(C(C)C)noc3CC4)nc2)CC1 [Compound I-25, N-(5-(4-ethylpiperazin-1-yl)pyridin-2-yl)-9-isopropyl-5,6-dihydroisoxazolo [5,4-H]quinazolin-2-amine] | 64 |  | 11
CC(C)Cc1noc2ccc3cnc(Nc4ccc(N5CCNCC5)cn4)nc3c12 [Compound I-18, 9-isobutyl-N-(5-(piperazin-1-yl)pyridin-2-yl)isoxazolo[5,4-H]quinazolin-2-amine] | 32 |  | 6
CCN1CCN(c2ccc(Nc3ncc4ccc5onc(C(C)C)c5c4n3)nc2)CC1 [Compound I-5, N-(5-(4-ethylpiperazin-1-yl)pyridin-2-yl)-9-isopropylisoxazolo [5,4-H]quinazolin-2-amine] | 4 |  | 1
CC(C)c1noc2ccc3cnc(Nc4ccc(N5CCNCC5=O)cn4)nc3c12 [Compound I-16, 1-(6-((9-isopropylisoxazolo[5,4-H]quinazolin-2-yl)amino)pyridin-3-yl)piperazin-2-one] | 25 |  | 7
CCN1CCN(Cc2ccc(Nc3ncc4ccc5onc(C(C)C)c5c4n3)nc2)CC1 [Compound I-12, N-(5-((4-ethylpiperazin-1-yl)methyl)pyridin-2-yl)-9-isopropylisoxazolo[5,4-H] quinazolin-2-amine] | 40 |  | 9
CC(C)c1noc2ccc3cnc(Nc4ccc(N5CCN(C6CC6)CC5)cn4)nc3c12 [Compound I-10, N-(5-(4-eyelopropylpiperazin-1-yl)pyridin-2-yl)-9-isopropylisoxazolo[5,4-H] quinazolin-2-amine] | 67 |  | 21
CC(C)CN1CCN(c2ccc(Nc3ncc4ccc5onc(C(C)C)c5c4n3)nc2)CC1 [Compound I-11, N-(5-(4-isobutylpiperazin-1-yl)pyridin-2-yl)-9-isopropylisoxazolo[5,4-H] quinazolin-2-amine] | 24 |  | 8
CC(C)c1noc2ccc3cnc(Nc4ccc(N5CCN(C)CC5)cn4)nc3c12 [Compound I-4, 9-isopropyl-N-(5-(4-methylpiperazin-1-yl)pyridin-2-yl)isoxazolo [5,4-H]quinazolin-2-amine] | 4 |  | 1
